Test system: CK1δ overexpressing breast cancer cells
Experiment: Apoptosis by PI/Annexin V FACS
Format: cell-based, human
Details: 72 hr treatment
Method: 2×10^5 cells seeded in triplicate in 6-well dishes were cultured with SR-3029 or vehicle for 72 hr. Cells were then harvested and stained with Annexin V-FITC and PI using the Annexin V-FITC Apoptosis Detection Kit (BioVision) per the manufacturer's instructions and analyzed using the LSRI II flow cytometer (Becton Dickinson). Staurosporine (Cell Signaling) treated cells (1 μM) were used as positive/compensation controls.

Fc1cccc(-n2cnc3c(NCc4nc5ccc(F)c(F)c5[nH]4)nc(N4CCOCC4)nc32)c1 [SR-3029] was tested, and the apoptosis was “selectively triggered rapid apoptosis”.
